Measured values reported in patent publication US20230219965A1 (KSQ Therapeutics, Inc., priority 2020, published 2023).
Read-outs that look alike come from different tables or passages of the source.

Tests used:
[1] = biological target: USP1/UAF1 enzyme (Homo sapiens, UniProt O94782); assay: USP1/UAF1 deubiquitination assay (ubiquitin-rhodamine 110 substrate); type: biochemical; settings: read-out: USP1 IC50 (Ub-Rho)
In short: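 0.05 nM USP1/UAF1 was preincubated 10 min with compounds (dose response from 10 μM) in 50 mM Tris-HCl pH 7.8, 0.5 mM EDTA, 0.01% BSA, 1 mM DTT, 0.01% Tween-20. 150 nM ubiquitin-rhodamine 110 started the reaction, read kinetically 30 min at Ex480/Em540; IC50 by four-parameter fit versus no-enzyme and DMSO controls.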

[2] = Liver microsomal metabolic stability, human liver microsomes (HLM); settings: for half-life at 1 μM: human, liver microsomes; for t1/2 (min) in HLM: human liver microsomes, 1 μM compound, 1 mg/mL microsomes, NADPH
[3] = Liver microsomal metabolic stability, rat liver microsomes (RLM); settings: 1 μM compound, 1 mg/mL microsomes, NADPH; for half-life at 1 μM: rat, liver microsomes, t1/2 (min) in RLM
[4] = system: Ub-PCNA levels in the nucleus of ES2 cells (USP1 activity); assay: ES2 Ub-PCNA immunofluorescence (IF) assay; type: cell-based; settings: ES2 cells, 3 hours, Ub-PCNA immunofluorescence, read-out: USP1 IC50 (Ub-PCNA)
In short: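 Cells plated overnight, then compound-treated for 3 h at 37° C (0.3% DMSO final), methanol-fixed and stained with anti-Ub-PCNA plus DAPI. Per-nucleus Ub-PCNA intensity imaged; cells above the 95% cutoff of untreated wells counted as positive, and percent positive cells used to derive AC50.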

[5] = ADME solubility determination in PBS at pH 2.0 and pH 7.4; type: physicochemical; settings: for solubility at 24 h: phosphate buffered saline, 25 °C, thermodynamic from solid; for Solubility at pH 2.0 (μM) / Solubility at pH 7.4 (μM): 24 hours
In short: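 Dried 10 mM DMSO stock residues taken up in PBS pH 7.4 or pH 2.0, shaken 24 h at 25° C. After centrifugation, supernatant quantified by LC-MS/MS against a standard of known concentration, with a dilution factor applied.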

[6] = pH 2, aqueous buffer, PBS pH 2.0, 25° C., read-out: Solubility at pH 2.0
[7] = pH 7.4, aqueous buffer, PBS pH 7.4, 25° C., read-out: Solubility at pH 7.4

USP1/UAF1 enzyme, sequence (O94782 whole entry): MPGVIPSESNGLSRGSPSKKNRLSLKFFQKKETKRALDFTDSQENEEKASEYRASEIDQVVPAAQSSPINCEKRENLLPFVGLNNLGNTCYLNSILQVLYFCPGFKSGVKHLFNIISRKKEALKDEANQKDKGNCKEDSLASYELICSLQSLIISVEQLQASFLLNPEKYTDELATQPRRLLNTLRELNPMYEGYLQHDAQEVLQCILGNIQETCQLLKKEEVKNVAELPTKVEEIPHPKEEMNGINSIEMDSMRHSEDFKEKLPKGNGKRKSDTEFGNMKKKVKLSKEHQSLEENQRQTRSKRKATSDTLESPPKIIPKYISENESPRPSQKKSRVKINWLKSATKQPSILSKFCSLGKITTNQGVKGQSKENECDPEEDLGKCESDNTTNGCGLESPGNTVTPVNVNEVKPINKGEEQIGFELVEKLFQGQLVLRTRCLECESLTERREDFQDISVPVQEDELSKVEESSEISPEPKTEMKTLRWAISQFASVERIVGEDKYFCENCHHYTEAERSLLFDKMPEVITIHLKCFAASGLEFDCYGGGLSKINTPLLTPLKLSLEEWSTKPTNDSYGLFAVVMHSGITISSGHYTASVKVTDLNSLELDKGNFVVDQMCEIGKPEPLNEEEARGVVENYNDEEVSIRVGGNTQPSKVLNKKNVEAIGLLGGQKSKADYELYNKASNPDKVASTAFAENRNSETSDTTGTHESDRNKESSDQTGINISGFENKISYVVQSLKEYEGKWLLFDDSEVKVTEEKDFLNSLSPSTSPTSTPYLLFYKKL
USP1/UAF1 enzyme, sequence (Q8TAF3 whole entry partner): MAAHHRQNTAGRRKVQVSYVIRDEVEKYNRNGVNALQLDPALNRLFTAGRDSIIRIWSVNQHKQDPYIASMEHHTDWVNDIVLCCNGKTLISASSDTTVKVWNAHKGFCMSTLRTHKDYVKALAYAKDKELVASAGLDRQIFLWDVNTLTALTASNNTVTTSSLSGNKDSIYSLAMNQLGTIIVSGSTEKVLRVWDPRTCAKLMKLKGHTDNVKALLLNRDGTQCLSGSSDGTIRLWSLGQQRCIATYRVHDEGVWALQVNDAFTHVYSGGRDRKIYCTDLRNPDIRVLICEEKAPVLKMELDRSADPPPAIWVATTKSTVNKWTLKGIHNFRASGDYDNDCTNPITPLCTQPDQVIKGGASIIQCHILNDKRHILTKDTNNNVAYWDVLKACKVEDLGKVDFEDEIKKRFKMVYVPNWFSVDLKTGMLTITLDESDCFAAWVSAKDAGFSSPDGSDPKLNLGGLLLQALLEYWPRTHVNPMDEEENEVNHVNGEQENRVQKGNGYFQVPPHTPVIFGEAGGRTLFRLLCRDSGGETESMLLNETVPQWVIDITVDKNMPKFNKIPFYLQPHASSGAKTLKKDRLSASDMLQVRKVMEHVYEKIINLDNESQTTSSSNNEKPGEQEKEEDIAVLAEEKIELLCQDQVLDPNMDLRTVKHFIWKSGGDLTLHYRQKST

| Compound | IC50 [1] | half-life at 1 μM [2] | half-life at 1 μM [3] | IC50 ([4]; Homo sapiens, ES-2) | solubility at 24 h [5, 6] | solubility at 24 h [5, 7] | t1/2 (min) in HLM [2] | t1/2 (min) in RLM [3] | IC50 [4] | Solubility at pH 2.0 (μM) ([5]; PBS pH 2.0, 25° C.) | Solubility at pH 7.4 (μM) ([5]; PBS pH 7.4, 25° C.) |
| --- | --- | --- | --- | --- | --- | --- | --- | --- | --- | --- | --- |
| COc1ncnc(C2CC2)c1-c1nc2n(n1)CCC(=O)N2[C@H](C)c1ccc(-c2nc(C(F)(F)F)cn2C2CC2)cc1 [Example 201] | < 100 nM | > 25 min | > 25 min | < 100 nM | ≥ 10 µM | ≥ 10 µM | – | – | – | – | – |
| COc1ncnc(C2CC2)c1-c1nc2n(n1)CCC(=O)N2[C@@H](C)c1ccc(-n2nc(C(F)(F)F)cc2C)c(F)c1 [Example 203] | 100 to 500 nM | > 25 min | > 25 min | 100 to 500 nM | ≥ 10 µM | ≥ 10 µM | – | – | – | – | – |
| COc1ncnc(C2CC2)c1-c1nc2n(n1)CCC(=O)N2[C@H](C)c1ccc(-n2nc(C(F)(F)F)cc2C)c(F)c1 [Example 204] | < 100 nM | > 25 min | > 25 min | < 100 nM | ≥ 10 µM | ≥ 10 µM | – | – | – | – | – |
| COc1ncnc(C2CC2)c1-c1nc2n(n1)CCC(=O)N2[C@H](C)c1ccc(-c2nc(C(F)(F)F)c(Br)n2C)cc1 [Example 206] | < 100 nM | > 25 min | > 25 min | < 100 nM | ≥ 10 µM | < 10 µM | – | – | – | – | – |
| COc1ncnc(C2CC2)c1-c1nc2n(n1)CCC(=O)N2Cc1ccc(-c2nc(C(F)(F)F)cn2C(C)C)c(F)c1OC [Example 210] | < 100 nM | > 25 min | > 25 min | < 100 nM | ≥ 10 µM | ≥ 10 µM | – | – | – | – | – |
| CCn1cc(C(F)(F)F)nc1-c1ccc([C@H](C)N2C(=O)CCn3nc(-c4c(OC)ncnc4C4CC4)nc32)cc1Cl [Example 211] | < 100 nM | > 25 min | < 25 min | < 100 nM | ≥ 10 µM | < 10 µM | – | – | – | – | – |
| CCn1cc(C(F)(F)F)nc1-c1ccc([C@H](C)N2C(=O)CCn3nc(-c4c(OC)ncnc4C4CC4)nc32)cc1Cl [Example 212] | < 100 nM | – | – | – | – | – | ++ (“++” indicates 25 minutes greater) | ++ (“++” indicates 25 minutes greater) | < 100 nM | ++ (“++” indicates 10 μM or greater) | ++ (“++” indicates 10 μM or greater) |
| COc1nccc(C2CC2)c1-c1nc2n(n1)CCC(=O)N2Cc1ccc(-c2nc(C(F)(F)F)cn2C(C)C)c(F)c1 [Example 213] | < 100 nM | > 25 min | > 25 min | 100 to 500 nM | < 10 µM | < 10 µM | – | – | – | – | – |

Next, values leading:

| IC50 [1] | half-life at 1 μM [2] | half-life at 1 μM [3] | IC50 ([4]; Homo sapiens, ES-2) | solubility at 24 h [5, 6] | solubility at 24 h [5, 7] | t1/2 (min) in HLM [2] | t1/2 (min) in RLM [3] | IC50 [4] | Solubility at pH 2.0 (μM) ([5]; PBS pH 2.0, 25° C.) | Solubility at pH 7.4 (μM) ([5]; PBS pH 7.4, 25° C.) | Compound |
| --- | --- | --- | --- | --- | --- | --- | --- | --- | --- | --- | --- |
| < 100 nM | > 25 min | > 25 min | 100 to 500 nM | < 10 µM | < 10 µM | – | – | – | – | – | COc1c(CN2C(=O)CCn3nc(-c4c(Cl)cnn4C(C)C)nc32)ccc(-c2nc(C(F)(F)F)cn2C(C)C)c1F [Example 216] |
| < 100 nM | > 25 min | > 25 min | < 100 nM | ≥ 10 µM | ≥ 10 µM | – | – | – | – | – | CCn1cc(C(F)(F)F)nc1-c1ccc(CN2C(=O)CCn3nc(-c4c(OC)ncnc4C4CC4)nc32)c(OC)c1F [Example 217] |
| < 100 nM | < 25 min | < 25 min | < 100 nM | ≥ 10 µM | ≥ 10 µM | – | – | – | – | – | Cc1cnn(C(C)C)c1-c1nc2n(n1)CCCN2Cc1ccc(-c2nc(C(F)(F)F)cn2C)cc1 [Example 221, 2-(1-isopropyl-4-methyl-1H-pyrazol-5-yl)-4-(4-(1-methyl-4-(trifluoromethyl)-1H-imidazol-2-yl)benzyl)-4,5,6,7-tetrahydro-[1,2,4]triazolo[1,5-α]pyrimidine] |
| < 100 nM | < 25 min | < 25 min | < 100 nM | ≥ 10 µM | < 10 µM | – | – | – | – | – | Cc1cnn(C(C)C)c1-c1nc2n(n1)CCCN2Cc1ccc(-c2nc(C(F)(F)F)cn2C(C)C)cc1 [Example 222, 4-(4-(1-isopropyl-4-(trifluoromethyl)-1H-imidazol-2-yl)benzyl)-2-(1-isopropyl-4-methyl-1H-pyrazol-5-yl)-4,5,6,7-tetrahydro-[1,2,4]triazolo[1,5-a]pyrimidine] |
| 100 to 500 nM | > 25 min | > 25 min | 100 to 500 nM | < 10 µM | < 10 µM | – | – | – | – | – | CC(C)n1ncc(Cl)c1-c1cc2n(n1)CC(C)(O)C(=O)N2Cc1ccc(-c2nc(C(F)(F)F)cn2C)cc1 (stereo not drawn) [Example 232, 2-(4-chloro-1-isopropyl-1H-pyrazol-5-yl)-6-hydroxy-6-methyl-4-(4-(1-methyl-4-(trifluoromethyl)-1H-imidazol-2-yl)benzyl)-6,7-dihydropyrazolo[1,5-α]pyrimidin-5(4H)-one] |
| < 100 nM | – | – | – | – | – | ++ (“++” indicates 25 minutes greater) | ++ (“++” indicates 25 minutes greater) | 100 to 500 nM | ++ (“++” indicates 10 μM or greater) | + (“+” indicates less than 10 μM) | CCn1cc(C(F)(F)F)nc1-c1ccc(CN2C(=O)C(N)Cn3nc(-c4c(Cl)cnn4C(C)C)cc32)cc1 (stereo not drawn) [Example 233, 6-amino-2-(4-chloro-1-isopropyl-1H-pyrazol-5-yl)-4-(4-(1-ethyl-4-(trifluoromethyl)-1H-imidazol-2-yl)benzyl)-6,7-dihydropyrazolo[1,5-α]pyrimidin-5(4H)-one] |
| < 100 nM | < 25 min | < 25 min | 100 to 500 nM | ≥ 10 µM | < 10 µM | – | – | – | – | – | CCn1cc(C(F)(F)F)nc1-c1ccc(CN2C(=O)C(N(C)C)Cn3nc(-c4c(Cl)cnn4C(C)C)cc32)cc1 (stereo not drawn) [Example 235, 2-(4-chloro-1-isopropyl-1H-pyrazol-5-yl)-6-(dimethylamino)-4-(4-(1-ethyl-4-(trifluoromethyl)-1H-imidazol-2-yl)benzyl)-6,7-dihydropyrazolo[1,5-α]pyrimidin-5(4H)-one] |
| 100 to 500 nM | < 25 min | < 25 min | > 500 nM | ≥ 10 µM | < 10 µM | – | – | – | – | – | CCn1cc(C(F)(F)F)nc1-c1ccc(CN2C(=O)C(NC)Cn3nc(-c4c(Cl)cnn4C(C)C)cc32)cc1 (stereo not drawn) [Example 236, 2-(4-chloro-1-isopropyl-1H-pyrazol-5-yl)-4-(4-(1-ethyl-4-(trifluoromethyl)-1H-imidazol-2-yl)benzyl)-6-(methylamino)-6,7-dihydropyrazolo[1,5-α]pyrimidin-5(4H)-one] |
| < 100 nM | > 25 min | < 25 min | < 100 nM | < 10 µM | < 10 µM | – | – | – | – | – | CCn1cc(C(F)(F)F)nc1-c1ccc(NC2CCCn3nc(-c4c(Cl)cnn4C(C)C)cc32)cc1 (stereo not drawn) [Example 237, 2-(4-chloro-1-isopropyl-1H-pyrazol-5-yl)-N-(4-(1-ethyl-4-(trifluoromethyl)-1H-imidazol-2-yl)phenyl)-4,5,6,7-tetrahydropyrazolo[1,5-α]pyridin-4-amine] |
| < 100 nM | > 25 min | > 25 min | < 100 nM | ≥ 10 µM | < 10 µM | – | – | – | – | – | CCn1cc(C(F)(F)F)nc1-c1ccc(NC2CCCn3nc(-c4c(OC)ncnc4C4CC4)cc32)cc1 (stereo not drawn) [Example 240, 2-(4-cyclopropyl-6-methoxypyrimidin-5-yl)-N-(4-(1-ethyl-4-(trifluoromethyl)-1H-imidazol-2-yl)phenyl)-4,5,6,7-tetrahydropyrazolo[1,5-a]pyridin-4-amine] |
| < 100 nM | > 25 min | > 25 min | 100 to 500 nM | < 10 µM | < 10 µM | – | – | – | – | – | CCn1cc(C(F)(F)F)nc1-c1ccc(NC2CCCn3nc(-c4c(Cl)cnn4C(C)C)cc32)cc1F (stereo not drawn) [Example 241, 2-(4-chloro-1-isopropyl-1H-pyrazol-5-yl)-N-(4-(1-ethyl-4-(trifluoromethyl)-1H-imidazol-2-yl)-3-fluorophenyl)-4,5,6,7-tetrahydropyrazolo[1,5-a]pyridin-4-amine] |
| < 100 nM | > 25 min | > 25 min | < 100 nM | < 10 µM | < 10 µM | – | – | – | – | – | Cc1cc(C(F)(F)F)nn1-c1ccc(NC2CCCn3nc(-c4c(Cl)cnn4C(C)C)cc32)cc1 (stereo not drawn) [Example 244, 2-(4-chloro-1-isopropyl-1H-pyrazol-5-yl)-N-(4-(5-methyl-3-(trifluoromethyl)-1H-pyrazol-1-yl)phenyl)-4,5,6,7-tetrahydropyrazolo[1,5-a]pyridin-4-amine] |
